Laboratory results: PMC9027920, “Development of New Thiophene-Containing Triaryl Pyrazoline Derivatives as PI3Kγ Inhibitors” (Molecules, 2022)

Experiments:
[1] = target: T1, PI3Kα (Homo sapiens, UniProt P42336); test: competitive fluorescence polarization kinase activity assay, PI3Kα; format: biochemical; conditions: fluorescence polarization kinase kit
T1 construct: purchased Perkin–Elmer
Description: (§1) Initially, we directly tested the inhibition potency of the synthesized compounds on PI3K by using competitive fluorescence polarization kinase kits, as mentioned in previous investigations. […] According to the significance and research maturity of the isoforms as referenced, the PI3Kα and PI3Kγ isoforms were preliminarily included here.
(§2) The competitive fluorescence polarization kinase activity assay was used to test the inhibition potency on PI3K, as mentioned in previous investigations. In general, following the instruction of the Kit (Perkin–Elmer, Waltham, MA, USA), the 10 μL scale of PI3K activity reaction was conducted with the substrate diC8-PI(4,5)P2 in a solution containing 2.5 mM MgCl2, 5 mM HEPES, […] and 10 mM DTT at pH 7.0. Into the 10 μL reaction wells with 50 ng enzyme and […], different concentrations of the tested compounds were added, respectively. The mixture was incubated at room temperature for 3 h, and the reactions were then quenched. Afterwards, the phosphoinositide binding protein and the fluorescent dye-labeled phosphoinositide tracer were added in sequence. In the dark environment in 384-well black nonbinding plates (Corning, Corning, NY, USA), the further incubation lasted for 1 h. With appropriate filters, the polarization values of the corresponding dye were recorded to calculate the enzymatic activity of PI3K in this reacting procedure. This assay was universal for evaluating the activity of different PI3K isoforms.

[2] = tested on: HeLa (human epithelial cervical cancer cell line) cells; test: anti-proliferation assay, MTT, HeLa cells; format: cell-based
Method: (§3) In this section, the anti-proliferation activity of the synthesized compounds 3a–3t was evaluated. Herein, HeLa (human epithelial cervical cancer cell line), HepG2 (human hepatoellular carcinoma cell line) and L02 (human normal hepatocyte line) cells were used. According to the affection on L02 cells, most of the tested compounds were low-toxic. […] Basically, many of the compounds in this series could inhibit the growth of HeLa and HepG2 cells effectively. The anti-proliferation inhibitory activity and the enzymatic inhibition potency indicated the consistent tendencies; the SAR of the observed anti-proliferation activity was also similar to that of the enzymatic inhibition, especially that of PI3Kγ inhibition; thus, the cellular inhibition might be caused by the effect on PI3K. […] Thus, HepG2 cells were selected to conduct further investigations at the protein level.
(§4) In this section, the cells included HeLa (human epithelial cervical cancer cell line), HepG2 (human hepatocellular cancer cell line) and L02 (human normal hepatocyte line) to evaluate the anti-proliferation activity of the synthesized compounds. The cells were cultured in Dulbecco’s modified eagle medium (DMEM, Hyclone) with the addition of 10% fetal bovine serum (FBS, BI), 2 mmol/L L-glutamine, 100 units/mL penicillin-streptomycin (Sigma-Aldrich, Saint Louis, MO, USA), […] (Hyclone, Logan, UT, USA). The environment was 5% CO2 contained atmosphere at 37 °C. The tests of anti-proliferative activity were conducted under a standard method with the typical dye 3-(4,5-dimethylthiazol-2-yl)-2,5-diphenyltetrazolium bromide (MTT) in triplicate. The LX300 Epson Diagnostic micro-plate reader (Nagano, Japan) was used to record the absorbance at 570 nm (OD570).

[3] = target: T2, PI3Kγ (Homo sapiens, UniProt P48736); test: competitive fluorescence polarization kinase activity assay, PI3Kγ; format: biochemical; conditions: for IC50: fluorescence polarization kinase kit; for selectivity index: ratio of the IC50 values for PI3Kα and PI3Kγ
T2 construct: purchased Perkin–Elmer
Description: as §1, §2

[4] = cytotoxicity, MTT, L02 cells; format: cell-based; conditions: human, L02 cells (human normal hepatocyte line)
Method: as §3, §4

[5] = tested on: HepG2 (human hepatocellular cancer cell line) cells; test: anti-proliferation assay, MTT, HepG2 cells; format: cell-based; conditions: read-out: GI50 HepG2γ
Method: as §3, §4

T2 sequence (P48736 whole entry, species assumed): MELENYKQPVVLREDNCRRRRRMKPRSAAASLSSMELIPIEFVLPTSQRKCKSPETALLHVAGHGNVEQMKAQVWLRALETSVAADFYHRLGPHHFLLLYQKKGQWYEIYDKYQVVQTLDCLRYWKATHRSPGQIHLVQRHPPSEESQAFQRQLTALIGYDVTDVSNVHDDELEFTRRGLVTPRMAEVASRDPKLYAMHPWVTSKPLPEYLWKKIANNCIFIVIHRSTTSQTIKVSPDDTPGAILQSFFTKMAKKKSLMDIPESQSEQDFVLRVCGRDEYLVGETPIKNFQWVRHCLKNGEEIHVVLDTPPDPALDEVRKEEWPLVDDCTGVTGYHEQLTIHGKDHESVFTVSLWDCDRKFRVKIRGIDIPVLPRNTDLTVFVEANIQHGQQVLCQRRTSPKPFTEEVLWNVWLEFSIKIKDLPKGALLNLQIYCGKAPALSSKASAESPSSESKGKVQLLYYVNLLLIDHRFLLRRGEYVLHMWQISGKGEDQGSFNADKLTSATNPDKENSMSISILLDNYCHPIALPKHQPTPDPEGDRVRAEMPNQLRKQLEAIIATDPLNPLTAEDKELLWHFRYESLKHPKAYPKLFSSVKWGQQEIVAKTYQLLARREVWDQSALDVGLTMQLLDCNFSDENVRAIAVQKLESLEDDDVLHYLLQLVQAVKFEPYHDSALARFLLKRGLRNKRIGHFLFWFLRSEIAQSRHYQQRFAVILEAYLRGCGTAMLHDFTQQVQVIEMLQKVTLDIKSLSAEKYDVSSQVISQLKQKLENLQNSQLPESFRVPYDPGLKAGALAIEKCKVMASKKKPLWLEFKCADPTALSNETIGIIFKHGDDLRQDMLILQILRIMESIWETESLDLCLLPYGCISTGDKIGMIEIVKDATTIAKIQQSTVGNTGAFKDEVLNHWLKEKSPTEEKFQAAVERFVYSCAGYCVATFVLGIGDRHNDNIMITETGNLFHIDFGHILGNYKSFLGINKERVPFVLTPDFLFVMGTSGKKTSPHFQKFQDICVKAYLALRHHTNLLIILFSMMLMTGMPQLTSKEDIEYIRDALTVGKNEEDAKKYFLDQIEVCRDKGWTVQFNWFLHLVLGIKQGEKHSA
T1 sequence (P42336 whole entry, species assumed): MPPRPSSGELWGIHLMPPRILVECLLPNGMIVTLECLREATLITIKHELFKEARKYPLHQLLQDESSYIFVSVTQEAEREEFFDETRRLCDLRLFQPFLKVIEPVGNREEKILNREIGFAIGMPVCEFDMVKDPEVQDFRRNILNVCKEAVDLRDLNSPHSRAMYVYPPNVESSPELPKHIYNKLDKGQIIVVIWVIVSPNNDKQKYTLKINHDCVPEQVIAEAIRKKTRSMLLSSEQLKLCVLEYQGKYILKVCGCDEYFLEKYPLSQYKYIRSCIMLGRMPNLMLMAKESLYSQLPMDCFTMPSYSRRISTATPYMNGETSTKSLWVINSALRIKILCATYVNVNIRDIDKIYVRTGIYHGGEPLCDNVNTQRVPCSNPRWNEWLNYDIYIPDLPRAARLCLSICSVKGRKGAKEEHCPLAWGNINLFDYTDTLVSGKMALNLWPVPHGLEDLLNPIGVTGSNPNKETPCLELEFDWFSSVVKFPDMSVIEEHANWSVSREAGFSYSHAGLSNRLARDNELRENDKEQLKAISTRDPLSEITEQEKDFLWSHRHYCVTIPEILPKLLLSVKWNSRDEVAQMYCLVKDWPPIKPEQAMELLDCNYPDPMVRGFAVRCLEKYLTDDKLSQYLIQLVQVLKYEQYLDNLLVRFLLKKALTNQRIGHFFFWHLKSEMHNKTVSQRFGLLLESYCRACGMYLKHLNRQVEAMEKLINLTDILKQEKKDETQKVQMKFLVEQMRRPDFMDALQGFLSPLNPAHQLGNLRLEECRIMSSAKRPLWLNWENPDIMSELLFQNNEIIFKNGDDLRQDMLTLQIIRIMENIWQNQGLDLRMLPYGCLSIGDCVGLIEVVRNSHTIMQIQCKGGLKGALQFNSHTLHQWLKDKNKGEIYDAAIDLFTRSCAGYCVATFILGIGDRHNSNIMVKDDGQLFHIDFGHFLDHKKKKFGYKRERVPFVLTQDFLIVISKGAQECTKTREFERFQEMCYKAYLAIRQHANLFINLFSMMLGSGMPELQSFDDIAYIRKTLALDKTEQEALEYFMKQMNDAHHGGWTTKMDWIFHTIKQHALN
T1 sequence (P27986 whole entry partner, species assumed): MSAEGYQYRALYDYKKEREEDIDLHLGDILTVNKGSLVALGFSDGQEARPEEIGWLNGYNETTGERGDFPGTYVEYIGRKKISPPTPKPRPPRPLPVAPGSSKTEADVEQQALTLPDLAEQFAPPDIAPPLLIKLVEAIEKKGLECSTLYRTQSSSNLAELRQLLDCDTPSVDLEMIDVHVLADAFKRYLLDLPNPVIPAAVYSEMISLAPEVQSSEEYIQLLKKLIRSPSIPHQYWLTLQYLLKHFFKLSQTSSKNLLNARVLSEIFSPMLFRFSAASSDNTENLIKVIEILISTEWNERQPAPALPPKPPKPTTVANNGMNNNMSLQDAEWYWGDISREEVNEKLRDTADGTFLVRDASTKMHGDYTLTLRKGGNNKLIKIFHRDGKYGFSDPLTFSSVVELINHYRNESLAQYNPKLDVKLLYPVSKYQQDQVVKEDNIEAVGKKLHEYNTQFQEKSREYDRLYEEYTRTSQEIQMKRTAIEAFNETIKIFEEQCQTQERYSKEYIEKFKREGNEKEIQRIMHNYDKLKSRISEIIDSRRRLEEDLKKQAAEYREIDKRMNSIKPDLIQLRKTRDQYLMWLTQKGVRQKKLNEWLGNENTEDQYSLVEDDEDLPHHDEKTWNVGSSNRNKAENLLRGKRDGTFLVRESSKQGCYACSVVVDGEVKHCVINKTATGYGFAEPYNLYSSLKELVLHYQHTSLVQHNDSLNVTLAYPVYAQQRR

| Structure (SMILES) | melting point [°C] | IC50 [1] [µM] | GI50 [2] [µM] | IC50 [3] [µM] | CC50 [4] [µM] | GI50 [5] [µM] | selectivity index [3] |
| --- | --- | --- | --- | --- | --- | --- | --- |
| COc1ccc(C(=O)N2N=C(c3ccc(-c4ccccc4)cc3)CC2c2cccs2)cc1OC (centres unmarked) [3j, (3-([1,1’-Biphenyl]-4-yl)-5-(thiophen-2-yl)-4,5-dihydro-1H-pyrazol-1-yl)(3,4-dimethoxyphenyl)methanone] | 154 to 156 | 3.92 ± 0.064 | 75.7 ± 2.9 | > 100 | 196 ± 10 | 50.6 ± 1 |  |
| COc1ccc(C(=O)N2N=C(c3ccccc3)CC2c2cccs2)cc1OC (centres unmarked) [3a, (3,4-Dimethoxyphenyl)(3-phenyl-5-(thiophen-2-yl)-4,5-dihydro-1H-pyrazol-1-yl)methanone] | 141 to 143 | > 100 | 109 ± 5.8 | 7.48 ± 0.22 | 174 ± 10 | 61.1 ± 3.2 |  |
| COc1ccc(C(=O)N2N=C(c3ccc(C)cc3)CC2c2cccs2)cc1OC (centres unmarked) [3i, (3,4-Dimethoxyphenyl)(5-(thiophen-2-yl)-3-(p-tolyl)-4,5-dihydro-1H-pyrazol-1-yl)methanone] | 165 to 167 | 89.5 ± 3.4 | 66.6 ± 1.2 | 3.03 ± 0.085 | 151 ± 8.9 | 48.7 ± 1.8 |  |
| COc1ccc(C(=O)N2N=C(c3ccccc3F)CC2c2cccs2)cc1OC (centres unmarked) [3b, (3,4-Dimethoxyphenyl)(3-(2-fluorophenyl)-5-(thiophen-2-yl)-4,5-dihydro-1H-pyrazol-1-yl)methanone] | 118 to 120 | > 100 | 77.9 ± 3.9 | 4.43 ± 0.2 | 152 ± 9.5 | 50.2 ± 1.6 |  |
| COc1ccc(C(=O)N2N=C(c3cccc(Br)c3)CC2c2cccs2)cc1OC (centres unmarked) [3d, (3-(3-Bromophenyl)-5-(thiophen-2-yl)-4,5-dihydro-1H-pyrazol-1-yl)(3,4-dimethoxyphenyl)methanone] | 124 to 126 | 78.7 ± 4 | 57.1 ± 2.6 | 2.22 ± 0.072 | 120 ± 4.7 | 42.6 ± 1.9 |  |
| COc1ccc(C(=O)N2N=C(c3ccc(OC)c4ccccc34)CC2c2cccs2)cc1OC (centres unmarked) [3o, (3,4-Dimethoxyphenyl)(3-(4-methoxynaphthalen-1-yl)-5-(thiophen-2-yl)-4,5-dihydro-1H-pyrazol-1-yl)methanone] | 72 to 74 | 8.81 ± 0.17 | 18.1 ± 0.85 | 9.91 ± 0.26 | 137 ± 4.7 | 16.9 ± 0.36 |  |
| COc1ccc(C(=O)N2N=C(c3cccc([N+](=O)[O-])c3)CC2c2cccs2)cc1OC (centres unmarked) [3e, (3,4-Dimethoxyphenyl)(3-(3-nitrophenyl)-5-(thiophen-2-yl)-4,5-dihydro-1H-pyrazol-1-yl)methanone] | 76 to 78 | 2.08 ± 0.099 | 5.9 ± 0.2 | 1.12 ± 0.081 | 58.4 ± 2.6 | 5.51 ± 0.2 |  |
| COc1ccc2cc(C3=NN(C(=O)c4ccc(OC)c(OC)c4)C(c4cccs4)C3)ccc2c1 (centres unmarked) [3p, (3-(6-((λ1-Oxidanyl)-λ^5-methyl)naphthalen-2-yl)-5-(thiophen-2-yl)-4,5-dihydro-1H-pyrazol-1-yl)(3,4-dimethoxyphenyl)methanone] | 74 to 76 | 0.56 ± 0.045 | 6.81 ± 0.24 | 3.76 ± 0.19 | 67.1 ± 3.9 | 6.31 ± 0.54 |  |
| COc1ccc(C(=O)N2N=C(c3ccc(I)cc3)CC2c2cccs2)cc1OC (centres unmarked) [3m, (3,4-Dimethoxyphenyl)(3-(4-iodophenyl)-5-(thiophen-2-yl)-4,5-dihydro-1H-pyrazol-1-yl)methanone] | 69 to 71 | 75.6 ± 2.4 | 57.9 ± 3.6 | 2.52 ± 0.055 | 141 ± 5.6 | 40.1 ± 1.4 |  |
| COc1ccc(C(=O)N2N=C(c3ccc(OCc4ccccc4)cc3)CC2c2cccs2)cc1OC (centres unmarked) [3g, (3-(4-(Benzyloxy)phenyl)-5-(thiophen-2-yl)-4,5-dihydro-1H-pyrazol-1-yl)(3,4-dimethoxyphenyl)methanone] | 60 to 62 | 0.92 ± 0.056 | 31.6 ± 0.9 | 26.9 ± 1.4 | 104 ± 5.4 | 31.6 ± 1.4 |  |
| COc1ccc(C(=O)N2N=C(c3ccc(-c4ccc(Br)cc4)cc3)CC2c2cccs2)cc1OC (centres unmarked) [3k, (3-(4’-Bromo-[1,1’-biphenyl]-4-yl)-5-(thiophen-2-yl)-4,5-dihydro-1H-pyrazol-1-yl)(3,4-dimethoxyphenyl)methanone] | 75 to 77 | 1.1 ± 0.061 | 44.6 ± 2.1 | 42.7 ± 2.6 | 178 ± 8.7 | 46.6 ± 1.3 |  |
| COc1ccc(C(=O)N2N=C(c3ccc4ccccc4c3)CC2c2cccs2)cc1OC (centres unmarked) [3n, (3,4-Dimethoxyphenyl)(3-(naphthalen-2-yl)-5-(thiophen-2-yl)-4,5-dihydro-1H-pyrazol-1-yl)methanone] | 149 to 151 | 12 ± 1.1 | 11.1 ± 1.2 | 1.79 ± 0.049 | 62.6 ± 2.6 | 8.85 ± 0.31 |  |
| COc1ccc(C2=NN(C(=O)c3ccc(OC)c(OC)c3)C(c3cccs3)C2)cc1 (centres unmarked) [3f, (3,4-Dimethoxyphenyl)(3-(4-methoxyphenyl)-5-(thiophen-2-yl)-4,5-dihydro-1H-pyrazol-1-yl)methanone] | 53 to 55 | 26.6 ± 1.01 | 23.7 ± 1.2 | 0.57 ± 0.044 | 112 ± 8.3 | 15.1 ± 0.42 | 46.7 |
| COc1ccc(C(=O)N2N=C(c3ccc(Br)cn3)CC2c2cccs2)cc1OC (centres unmarked) [3t, (3-(5-Bromopyridin-2-yl)-5-(thiophen-2-yl)-4,5-dihydro-1H-pyrazol-1-yl)(3,4-dimethoxyphenyl)methanone] | 77 to 79 | > 100 | 124 ± 9.7 | 9.15 ± 0.14 | > 300 | 110 ± 8.1 |  |
| COc1ccc(C(=O)N2N=C(c3ccc(SC)cc3)CC2c2cccs2)cc1OC (centres unmarked) [3h, (3-(4-((λ^1-Sulfanyl)-λ^5-methyl)phenyl)-5-(thiophen-2-yl)-4,5-dihydro-1H-pyrazol-1-yl) (3,4-dimethoxyphenyl)methanone] | 63 to 65 | 64.4 ± 3.6 | 61.3 ± 2.3 | 18.1 ± 1.7 | 180 ± 4.6 | 53.3 ± 1.9 |  |
| COc1ccc(C(=O)N2N=C(c3ccc(OC)c(OC)c3)CC2c2cccs2)cc1OC (centres unmarked) [3q, (3,4-Dimethoxyphenyl)(3-(3,4-dimethoxyphenyl)-5-(thiophen-2-yl)-4,5-dihydro-1H-pyrazol-1-yl)methanone] | 127 to 128 | 5.24 ± 0.13 | 4.72 ± 0.12 | 0.43 ± 0.036 | 41.3 ± 2.6 | 4.22 ± 0.13 | 12.2 |
| O=c1cc(N2CCOCC2)oc2c(-c3ccccc3)cccc12 [LY294002, reference compound] |  |  | 21.1 ± 2 |  | 51.3 ± 1.4 | 26.5 ± 1.9 |  |
| COc1ccc(C(=O)N2N=C(c3cccc(F)c3)CC2c2cccs2)cc1OC (centres unmarked) [3c, (3,4-Dimethoxyphenyl)(3-(3-fluorophenyl)-5-(thiophen-2-yl)-4,5-dihydro-1H-pyrazol-1-yl)methanone] | 50 to 51 | 30.9 ± 1.3 | 26.3 ± 1.7 | 4.21 ± 0.072 | 94.5 ± 4.3 | 20.4 ± 2 |  |
| COc1ccc(C(=O)N2N=C(c3ccc(C)c(C)c3)CC2c2cccs2)cc1OC (centres unmarked) [3r, (3,4-Dimethoxyphenyl)(3-(3,4-dimethylphenyl)-5-(thiophen-2-yl)-4,5-dihydro-1H-pyrazol-1-yl)methanone] | 104 to 106 | 4.13 ± 0.062 | 6.2 ± 0.22 | 1.37 ± 0.055 | 52.5 ± 3.2 | 5.55 ± 0.41 |  |
| COc1ccc(C(=O)N2N=C(c3ccc(Br)cc3)CC2c2cccs2)cc1OC (centres unmarked) [3l, (3-(4-Bromophenyl)-5-(thiophen-2-yl)-4,5-dihydro-1H-pyrazol-1-yl)(3,4-dimethoxyphenyl)methanone] | 71 to 73 | 17.1 ± 0.58 | 20.1 ± 1.7 | 5.11 ± 0.083 | 86.6 ± 3.5 | 15.5 ± 0.87 |  |
